{
  "source": "paper PMC8344021",
  "about": "“Discovery of Small Molecule Bak Activator for Lung Cancer Therapy” (Theranostics, 2021)",
  "key": {"[1]": {"system": "Cyt c release in A549 cells", "assay": "Cyt c release from mitochondria in cells (subcellular fractionation, Western blot)", "type": "cell-based, human", "conditions": "24h", "protocol": "To further test whether Bak is required for BKA-073 induction of Cyt c release, A549 parental, Bak^-/-, Bax^-/- and DKO cells were treated with BKA-073 (1 μM) for 24h, followed by analysis of Cyt c release from mitochondria. […] To further test whether BKA-073 directly induces Cyt c release from isolated mitochondria in a Bak- but not Bax-dependent fashion, purified mitochondria were isolated from A549 parental, Bak^-/-, Bax^-/- and DKO cells. The isolated mitochondria were treated with BKA-073 (1 μM) for 30 min at 30 °C. After centrifugation at 13000 g for 5 min, Cyt c in the supernatant (i.e., Cyt c release) was analyzed by Western blot. […]\nBak proteins was eluted with buffer B (20 mM Tris, pH 8.0, 120 mM NaCl, 300 mM imidazole, 10% glycerol with protease inhibitor). The elution peak of interest was checked by SDS -PAGE electrophoresis. The purified mouse Bak protein was dialyzed with buffer A . […]\nSubcellular fractionation\nCells (2 ×107) were washed with cold 1× PBS and resuspended in isotonic mitochondrial buffer (210 mM mannitol, 70 mM sucrose, 1 mM EGTA, 10 mM Hepes, pH 7.5) containing 10% protease inhibitor mixture set I, homogenized with a polytron homogenizer, and then centrifuged at 1000 × g for 5 min to remove the nuclei and unbroken cells. The supernatant was centrifuged at 13,000 × g for 10 min to pellet mitochondria. […] Cyt c was analyzed"}, "[2]": {"system": "A549 cells", "assay": "Dynamic BH3 profiling (DBP), mitochondrial priming", "type": "cell-based, human", "conditions": "0, 0.25, 0.5, 0.75, 1.0 µM, 16h", "protocol": "DBP using Bim peptide was carried out as described previously [24]-[26]. After treatment with BKA-073, venetoclax (ABT-199) or DMSO control for 16h, cells were collected, washed and resuspended at 2 x 10^6 cells/ mL in mannitol experimental buffer (MEB) [150 mM D-mannitol, 10 mM HEPES-KOH (pH 7.5), 50 mM KCl, 20 μM EGTA, 20 μM EDTA, 0.1% BSA, and 5 mM succinate] as described. One volume of the 4x cell suspension was added to one volume of a 4x dye solution containing 4 μM JC-1, […] oligomycin, 0.02% digitonin, 20mM β-mercaptoethanol in MEB. The 2x cell/dye mixture was allowed to rest for 5-10 min at room temperature to allow for permeabilization and JC-1 staining. A total of 15μl of the 2x cell/dye mixture was loaded into a 384-well plate that contained 15µL of Bim BH3 peptide (0.03, 0.1, 0.3, 1, and 3 μM) in MEB, shaken for 15 s inside the reader, and the fluorescence at 590 nm monitored every 5 min for 180 min at 32 °C. The dynamic BH3 profile (∆ % Priming) was calculated as described [24]-[26].\nThe BH3 death domain is known to be required for the proapoptotic function of Bak. […] The top 500 compounds determined to have the highest affinity for the BH3 domain were obtained from the NCI and tested for cytotoxicity in human lung cancer cells (i.e. H1299, H460 and A549 cells) by sulforhodamine B (SRB) assay for further screening as described, [36]. […]"}},
  "note": "“Also recorded” adds a separate entry of the source.",
  "data": [
    {"smiles": "COc1ccc2nc3ccccc3c(NCCNCC(C)O)c2c1", "note": "(stereo not drawn) [BKA-073]", "values": [
      {"measurement": "Cyt c release", "setting": "[1]; A549 Bax-/- cells, 1 μM", "result": "Cyt c release was observed"},
      {"measurement": "Cyt c release", "setting": "[1]; A549 parental cells", "result": "promoted Cyt c release from mitochondria; also recorded: Cyt c release was observed"},
      {"measurement": "induction of mitochondrial priming (∆% priming)", "setting": "[2]", "result": "in a dose-dependent manner"}
    ]}
  ]
}
